Test results as given in patent publication US10689377B2 (Mirati Therapeutics, Inc., priority 2017, dated 2020).

Molecular target: KRas G12C (Homo sapiens, UniProt P01116, G12C)
Experiment: Cellular inhibition of KRas G12C measured by Phospho-ERK in NCI-H358 cells
Format: cell-based
Conditions: pERK(Thr202/Tyr204) normalized with GAPDH, NCI-H358 cells, 3 hours; read-out: IC50
In short: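 NCI-H358 cells treated 3 h with compound (0.5% DMSO final), then fixed and methanol-permeabilised. In-cell immunofluorescence measured pERK(Thr202/Tyr204) normalised to GAPDH as percent of DMSO control. IC50 from a 4-parameter dose-response fit.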

Sequence of KRas G12C (P01116 1-188 isoform P01116-2 G12C): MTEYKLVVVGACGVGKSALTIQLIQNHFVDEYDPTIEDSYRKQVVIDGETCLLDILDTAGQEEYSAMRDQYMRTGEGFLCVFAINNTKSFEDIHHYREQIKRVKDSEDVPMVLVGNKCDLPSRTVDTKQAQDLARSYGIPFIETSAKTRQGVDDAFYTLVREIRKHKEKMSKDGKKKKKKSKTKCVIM

SMILES | IC50
C=CC(=O)N1CCN(c2nc(OCCCN(C)C)nc3c2CCN(C(C)c2ccccc2)C3)CC1 (centres unmarked) [Example 25, 1-(4-(2-(3-(dimethylamino)propoxy)-7-(1-phenylethyl)-5,6,7,8-tetrahydropyrido[3,4-d]pyrimidin-4-yl)piperazin-1-yl)prop-2-en-1-one] | > 1000 nM
C=CC(=O)N1CCN(c2nc(OCCCN3CCOCC3)nc3c2CCN(c2ccc(O)cc2OC(F)(F)F)C3)CC1 [Example 106, 1-(4-(7-(4-hydroxy-2-(trifluoromethoxy)phenyl)-2-(3-morpholinopropoxy)-5,6,7,8-tetrahydropyrido[3,4-d]pyrimidin-4-yl)piperazin-1-yl)prop-2-en-1-one] | > 1000 nM
C=CC(=O)N1CCN(c2nc(O[C@@H](C)CN(C)C)nc3c2CCN(c2cc(O)cc4ccccc24)C3)CC1 [Example 8, (S)-1-(4-(2-((1-(dimethylamino)propan-2-yl)oxy)-7-(3-hydroxynaphthalen-1-yl)-5,6,7,8-tetrahydropyrido[3,4-d]pyrimidin-4-yl)piperazin-1-yl)prop-2-en-1-one] | > 1000 nM
C=CC(=O)N1CCN(c2nc(O[C@H](CC)CN(C)C)nc3c2CCN(c2cc(O)cc4ccccc24)C3)CC1 [Example 60, (R)-1-(4-(2-((1-(dimethylamino)butan-2-yl)oxy)-7-(3-hydroxynaphthalen-1-yl)-5,6,7,8-tetrahydropyrido[3,4-d]pyrimidin-4-yl)piperazin-1-yl)prop-2-en-1-one] | > 1000 nM
C=CC(=O)N1CCN(c2nc(OC[C@@H]3CCCN3CC)nc3c2CCN(c2cc(O)cc4ccccc24)C3)CC1 [Example 197, (S)-1-(4-(2-((1-ethylpyrrolidin-2-yl)methoxy)-7-(3-hydroxynaphthalen-1-yl)-5,6,7,8-tetrahydropyrido[3,4-d]pyrimidin-4-yl)piperazin-1-yl)prop-2-en-1-one] | 0.1 to 1000 nM
C=CC(=O)N1CCN(c2nc(OCCN(C)C)nc3c2CCN(c2cc(O)cc4ccccc24)C3)CC1CO (centres unmarked) [Example 50, 1-(4-(2-(2-(dimethylamino)ethoxy)-7-(3-hydroxynaphthalen-1-yl)-5,6,7,8-tetrahydropyrido [3,4-d]pyrimidin-4-yl)-2-(hydroxymethyl)piperazin-1-yl)prop-2-en-1-one] | > 1000 nM
CC#CC(=O)N1CCN(c2nc(OC[C@@H]3CCCN3C)nc3c2CCN(c2cccc4ccccc24)C3)CC1CC#N (stereo partly drawn) [Example 376, 2-(1-(but-2-ynoyl)-4-(2-(((S)-1-methylpyrrolidin-2-yl)methoxy)-7-(naphthalen-1-yl)-5,6,7,8-tetrahydropyrido[3,4-d]pyrimidin-4-yl)piperazin-2-yl)acetonitrile 2,2,2-trifluoroacetate] | 0.1 to 1000 nM

More lines, now with the values ahead:

IC50 | SMILES
0.1 to 1000 nM | Cc1cccc2cccc(N3CCc4c(nc(OC[C@@H]5CCCN5C)nc4N4CCN(C(=O)C#CCO)[C@@H](CC#N)C4)C3)c12 [Example 508, 2-((S)-1-(4-hydroxybut-2-ynoyl)-4-(7-(8-methylnaphthalen-1-yl)-2-(((S)-1-methylpyrrolidin-2-yl)methoxy)-5,6,7,8-tetrahydropyrido[3,4-d]pyrimidin-4-yl)piperazin-2-yl)acetonitrile]
0.1 to 1000 nM | C=CC(=O)N1CCN(c2nc(OC[C@H]3CCCN3CC)nc3c2CCN(c2cccc4ccccc24)C3)C[C@@H]1CC#N [Example 334, 2-[(2S)-4-[2-[[(2R)-1-ethylpyrrolidin-2-yl]methoxy]-7-(1-naphthyl)-6,8-dihydro-5H-pyrido[3,4-d]pyrimidin-4-yl]-1-prop-2-enoyl-piperazin-2-yl]acetonitrile]
0.1 to 1000 nM | C=C(F)C(=O)N1CCN(c2nc(OC[C@H]3C[C@@H](F)CN3C)nc3c2CCN(c2cccc4cccc(C)c24)C3)C[C@@H]1CC#N [Example 518, 2-[(2S)-4-[2-[[(2R,4R)-4-fluoro-1-methyl-pyrrolidin-2-yl]methoxy]-7-(8-methyl-1-naphthyl)-6,8-dihydro-5H-pyrido[3,4-d]pyrimidin-4-yl]-1-(2-fluoroprop-2-enoyl)piperazin-2-yl]acetonitrile]
0.1 to 1000 nM | C=CC(=O)N1CCN(c2nc(OC[C@H]3CCCN3C)nc3c2CCN(c2ccccc2C(F)(F)F)C3)CC1CC#N (stereo partly drawn) [Example 299, 2-[4-[2-[[(2R)-1-methylpyrrolidin-2-yl]methoxy]-7-[2-(trifluoromethyl)phenyl]-6,8-dihydro-5H-pyrido[3,4-d]pyrimidin-4-yl]-1-prop-2-enoyl-piperazin-2-yl]acetonitrile]
0.1 to 1000 nM | CN(C)C/C=C/C(=O)N1CCN(c2nc(OC[C@@H]3C[C@@H](O)CN3C)nc3c2CCN(c2cccc(F)c2C(F)(F)F)C3)C[C@@H]1CC#N [Example 342, 2-[(2S)-1-[(E)-4-(dimethylamino)but-2-enoyl]-4-[7-[3-fluoro-2-(trifluoromethyl)phenyl]-2-[[(2S,4R)-4-hydroxy-1-methyl-pyrrolidin-2-yl]methoxy]-6,8-dihydro-5H-pyrido[3,4-d]pyrimidin-4-yl]piperazin-2-yl]acetonitrile]
0.1 to 1000 nM | C=CC(=O)N1CCN(c2nc(OC[C@@H]3C[C@H](F)CN3C)nc3c2CCN(c2cccc4ccccc24)C3)CC1CC#N (stereo partly drawn) [Example 221, 2-(1-acryloyl-4-(2-(((2S,4S)-4-fluoro-1-methylpyrrolidin-2-yl)methoxy)-7-(naphthalen-1-yl)-5,6,7,8-tetrahydropyrido[3,4-d]pyrimidin-4-yl)piperazin-2-yl)acetonitrile]
0.1 to 1000 nM | Cc1cccc2cccc(N3CCc4c(nc(OC[C@@H]5CCCN5C)nc4N4CCN(C(=O)/C=C/c5ccccn5)[C@@H](CC#N)C4)C3)c12 [Example 493, 2-((S)-4-(7-(8-methylnaphthalen-1-yl)-2-(((S)-1-methylpyrrolidin-2-yl)methoxy)-5,6,7,8-tetrahydropyrido[3,4-d]pyrimidin-4-yl)-1-((E)-3-(pyridin-2-yl)acryloyl)piperazin-2-yl)acetonitrile]
0.1 to 1000 nM | Cc1cccc(N2CCc3c(nc(OC[C@@H]4CCCN4C)nc3N3CCN(C(=O)/C=C/CN4CCC(F)C4)[C@@H](CC#N)C3)C2)c1C (stereo partly drawn) [Example 476, 2-[(2S)-4-[7-(2,3-dimethylphenyl)-2-[[(2S)-1-methylpyrrolidin-2-yl]methoxy]-6,8-dihydro-5H-pyrido[3,4-d]pyrimidin-4-yl]-1-[(E)-4-(3-fluoropyrrolidin-1-yl)but-2-enoyl]piperazin-2-yl]acetonitrile]
0.1 to 1000 nM | Cc1cccc(N2CCc3c(nc(OC[C@@H]4C[C@@H](F)CN4C)nc3N3CCN(C(=O)/C=C/CN(C)C)[C@@H](CC#N)C3)C2)c1C [Example 438, 2-((S)-1-((E)-4-(dimethylamino)but-2-enoyl)-4-(7-(2,3-dimethylphenyl)-2-(((2S,4R)-4-fluoro-1-methylpyrrolidin-2-yl)methoxy)-5,6,7,8-tetrahydropyrido[3,4-d]pyrimidin-4-yl)piperazin-2-yl)acetonitrile]
0.1 to 1000 nM | C=CC(=O)N1CCN(c2nc(OC[C@H]3CN(C)CCO3)nc3c2CCN(c2cccc4ccccc24)C3)CC1CC#N (stereo partly drawn) [Example 443, 2-(1-Acryloyl-4-(2-(((R)-4-methylmorpholin-2-yl)methoxy)-7-(naphthalen-1-yl)-5,6,7,8-tetrahydropyrido[3,4-d]pyrimidin-4-yl)piperazin-2-yl)acetonitrile]
